# Measured values as given in PubChem BioAssay AID192 (DTP/NCI, 2004).
# “And” between values parts separate entries of the source, which are not always exact repeats. Identical values can stand only once. Inconclusive results and toxic doses are left out.
# Tested on: BDF1 mice, B16 melanoma ip, median survival T/C
# Assay: NCI In Vivo Anticancer Drug Screen. Data for tumor model B16 Melanoma (intraperitoneal) in B6D2F1 (BDF1) mice
# Settings: endpoint: median survival time, higher = longer survival
# Method in brief: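 Survival or tumor size is measured after treatment of tumor-bearing mice and normalised to the vehicle-treated control group.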
# [1] = dose: 6.25 mg/kg/injection, schedule: Q01DX009 (ip), vehicle: saline with Tween-80
# [2] = dose: 12.5 mg/kg/injection, schedule: Q01DX009 (ip), vehicle: saline with Tween-80
# [3] = dose: 25.0 mg/kg/injection, schedule: Q01DX009 (ip), vehicle: saline with Tween-80
# [4] = dose: 100.0 mg/kg/injection, schedule: Q04DX003 (ip), vehicle: Klucel (hydroxypropylcellulose) (HPC)
# [5] = dose: 0.25 mg/kg/injection, schedule: Q01DX009 (ip), vehicle: saline
# [6] = dose: 0.5 mg/kg/injection, schedule: Q01DX009 (ip), vehicle: saline
# [7] = dose: 50.0 mg/kg/injection, schedule: Q01DX009 (ip), vehicle: saline with Tween-80
# [8] = dose: 100.0 mg/kg/injection, schedule: Q01DX009 (ip), vehicle: saline with Tween-80
# [9] = dose: 200.0 mg/kg/injection, schedule: Q01DX009 (ip), vehicle: saline with Tween-80
# [10] = dose: 100.0 mg/kg/injection, schedule: Q01DX009 (ip), vehicle: Klucel (hydroxypropylcellulose) (HPC)
# [11] = dose: 12.5 mg/kg/injection, schedule: Q01DX009 (ip), vehicle: Klucel (hydroxypropylcellulose) (HPC)
# [12] = dose: 25.0 mg/kg/injection, schedule: Q01DX009 (ip), vehicle: Klucel (hydroxypropylcellulose) (HPC)
# [13] = dose: 1.56 mg/kg/injection, schedule: Q01DX009 (ip), vehicle: Klucel (hydroxypropylcellulose) (HPC)
# [14] = dose: 3.12 mg/kg/injection, schedule: Q01DX009 (ip), vehicle: Klucel (hydroxypropylcellulose) (HPC)
# [15] = dose: 6.25 mg/kg/injection, schedule: Q01DX009 (ip), vehicle: Klucel (hydroxypropylcellulose) (HPC)
# [16] = dose: 2.0 mg/kg/injection, schedule: Q01DX009 (ip), vehicle: saline
# [17] = dose: 12.5 mg/kg/injection, schedule: Q01DX009 (ip), vehicle: saline
# [18] = dose: 25.0 mg/kg/injection, schedule: Q01DX009 (ip), vehicle: saline
# [19] = dose: 50.0 mg/kg/injection, schedule: Q01DX009 (ip), vehicle: saline
# [20] = dose: 100.0 mg/kg/injection, schedule: Q01DX009 (ip), vehicle: saline
structure (smiles),measurement,setting,value
CCn1c(=O)c2[nH]c(Cl)nc2n(CC)c1=O,T/C,"dose: 1.25 mg/kg/injection, schedule: Q## X032 (ip), vehicle: water",103 % of control
same,T/C,"dose: 2.5 mg/kg/injection, schedule: Q## X032 (ip), vehicle: water",101 % of control
same,T/C,"dose: 5.0 mg/kg/injection, schedule: Q## X032 (ip), vehicle: water",103 % of control
same,T/C,"dose: 10.0 mg/kg/injection, schedule: Q## X032 (ip), vehicle: water",97 % of control
Oc1ccc(Nc2c3ccccc3nc3c2ccc2ccccc23)cc1CN(CCCl)CCCl,T/C,"dose: 0.3 mg/kg/injection, schedule: Q01DX009 (ip), vehicle: saline",100 % of control
same,T/C,"dose: 0.45 mg/kg/injection, schedule: Q01DX009 (ip), vehicle: saline",117 % of control
same,T/C,"dose: 0.8 mg/kg/injection, schedule: Q01DX009 (ip), vehicle: saline",100 % of control
same,T/C,"dose: 1.2 mg/kg/injection, schedule: Q01DX009 (ip), vehicle: saline",107 % of control
CC(C)Cc1ccc(OC(=O)Nc2ccc(Cl)cc2)cc1,T/C,[1],97 % of control
same,T/C,[2],100 % of control
same,T/C,[3],91 % of control and 98 % of control
C=C(Cl)CC1(C(=O)OCC)CCN(S(=O)(=O)c2ccc(C)cc2)c2ccccc2C1=O (centres undefined),T/C,[4],97 % of control
same,T/C,"dose: 200.0 mg/kg/injection, schedule: Q04DX003 (ip), vehicle: Klucel (hydroxypropylcellulose) (HPC)",107 % of control
same,T/C,"dose: 400.0 mg/kg/injection, schedule: Q04DX003 (ip), vehicle: Klucel (hydroxypropylcellulose) (HPC)",93 % of control
CCOC(=O)NC1=C(N2CC2)C(=O)C(NC(=O)OCC)=C(N2CC2)C1=O,T/C,"dose: 0.13 mg/kg/injection, schedule: Q03HX016 (ip), vehicle: water",96 % of control
same,T/C,[5],100 % of control
same,T/C,"dose: 0.25 mg/kg/injection, schedule: Q03HX016 (ip), vehicle: water",93 % of control
same,T/C,[6],110 % of control
same,T/C,"dose: 0.75 mg/kg/injection, schedule: Q01DX009 (ip), vehicle: saline",120 % of control
same,T/C,"dose: 1.0 mg/kg/injection, schedule: Q01DX001 (oral), vehicle: water",96 % of control
same,T/C,"dose: 1.0 mg/kg/injection, schedule: Q03HX024 (ip), vehicle: water",91 % of control
same,T/C,"dose: 3.0 mg/kg/injection, schedule: Q01DX009 (ip), vehicle: saline with Tween-80",162 % of control
same,T/C,"dose: 3.0 mg/kg/injection, schedule: Q01DX009 (ip), vehicle: saline",160 % of control
same,T/C,"dose: 5.0 mg/kg/injection, schedule: Q01DX005 (ip), vehicle: saline with Tween-80",194 % of control
same,T/C,"dose: 16.0 mg/kg/injection, schedule: Q01DX009 (oral), vehicle: water",86 % of control
CCCCCCCCCCCCCCCC(=O)N(C(C)CCCN(CC)CC)C(C)CCCN(CC)CC (centres undefined),T/C,"dose: 3.13 mg/kg/injection, schedule: Q01DX009 (ip), vehicle: other",91 % of control
same,T/C,"dose: 12.5 mg/kg/injection, schedule: Q01DX009 (ip), vehicle: other",92 % of control
CC12COC(=O)CC1CCC1C2CCC2(C)C1CCC2(C)O (centres undefined),T/C,[7],94 % of control
same,T/C,[8],94 % of control
same,T/C,[9],88 % of control
CCCCC#CCOCC(O)CCl (centres undefined),T/C,"dose: 3.13 mg/kg/injection, schedule: Q01DX009 (ip), vehicle: saline with Tween-80",118 % of control
same,T/C,[1],114 % of control
same,T/C,[3],101 % of control
CCN(N=Nc1ccc(C)cc1)N=Nc1ccc(C)cc1,T/C,[10],90 % of control
same,T/C,"dose: 200.0 mg/kg/injection, schedule: Q01DX009 (ip), vehicle: Klucel (hydroxypropylcellulose) (HPC)",96 % of control
same,T/C,"dose: 400.0 mg/kg/injection, schedule: Q01DX009 (ip), vehicle: Klucel (hydroxypropylcellulose) (HPC)",86 % of control
Cc1c2oc3c(C)ccc(C(=O)NCCN4CCCCC4)c3nc-2c(C(=O)NCCN2CCCCC2)c(N)c1=O,T/C,[11],97 % of control
same,T/C,[12],112 % of control
C=CS(C=C)=NS(=O)(=O)c1ccc(C)cc1,T/C,[13],95 % of control and 108 % of control
same,T/C,[14],95 % of control and 101 % of control
same,T/C,[15],97 % of control and 98 % of control
same,T/C,[11],107 % of control and 110 % of control
same,T/C,[12],88 % of control and 95 % of control
C=C1C(=O)O[C@@H]2C[C@@H](C)[C@@H]3C=CC(=O)[C@@]3(C)[C@@H](O)[C@H]12,T/C,"dose: 2.0 mg/kg/injection, schedule: Q01DX009 (ip), vehicle: saline + alcohol",120 % of control
same,T/C,[16],104 % of control
same,T/C,"dose: 4.0 mg/kg/injection, schedule: Q01DX009 (ip), vehicle: saline + alcohol",115 % of control
same,T/C,"dose: 4.0 mg/kg/injection, schedule: Q01DX009 (ip), vehicle: saline",95 % of control
same,T/C,"dose: 8.0 mg/kg/injection, schedule: Q01DX009 (ip), vehicle: saline + alcohol",115 % of control
same,T/C,"dose: 8.0 mg/kg/injection, schedule: Q01DX009 (ip), vehicle: saline",105 % of control
OCC1OC(n2cnc3c2NC=NC[C@H]3O)CC1O (some centres undefined),T/C,"dose: 0.06 mg/kg/injection, schedule: Q01DX009 (ip), vehicle: saline",109 % of control
same,T/C,"dose: 0.12 mg/kg/injection, schedule: Q01DX009 (ip), vehicle: saline",104 % of control
same,T/C,[5],101 % of control and 103 % of control
same,T/C,[6],102 % of control and 106 % of control
same,T/C,"dose: 1.0 mg/kg/injection, schedule: Q01DX009 (ip), vehicle: saline",90 % of control and 98 % of control
same,T/C,[16],86 % of control
C1OC1CO[C@@H]1CO[C@H]2[C@@H]1OC[C@H]2OCC1CO1 (some centres undefined),T/C,[17],94 % of control
same,T/C,[18],94 % of control
same,T/C,[7],87 % of control
same,T/C,[19],115 % of control
same,T/C,[8],97 % of control
same,T/C,[20],104 % of control
same,T/C,"dose: 100.0 mg/kg/injection, schedule: Q04DX003 (ip), vehicle: saline with Tween-80",116 % of control
same,T/C,"dose: 200.0 mg/kg/injection, schedule: Q01DX009 (ip), vehicle: saline",326 % of control
same,T/C,"dose: 266.0 mg/kg/injection, schedule: Q04DX003 (ip), vehicle: saline with Tween-80",104 % of control
same,T/C,"dose: 400.0 mg/kg/injection, schedule: Q01DX009 (ip), vehicle: saline",327 % of control
same,T/C,"dose: 600.0 mg/kg/injection, schedule: Q04DX003 (ip), vehicle: saline with Tween-80",109 % of control
CC(C(=O)O)C(=O)O.[NH2-].[NH2-].[Pt+2],T/C,"dose: 0.78 mg/kg/injection, schedule: Q01DX009 (ip), vehicle: Klucel (hydroxypropylcellulose) (HPC)",102 % of control
same,T/C,[13],109 % of control
same,T/C,[14],120 % of control
same,T/C,[15],156 % of control
same,T/C,"dose: 6.25 mg/kg/injection, schedule: Q01DX009 (ip), vehicle: saline",124 % of control
same,T/C,[11],175 % of control
same,T/C,[17],160 % of control
same,T/C,[12],216 % of control
same,T/C,[18],175 % of control
same,T/C,[19],209 % of control
same,T/C,[20],202 % of control
CCN(CC)Cc1c(C)cc2oc(=O)c3c(c2c1O)CCCC3,T/C,"dose: 16.0 mg/kg/injection, schedule: Q01DX009 (ip), vehicle: Klucel (hydroxypropylcellulose) (HPC)",98 % of control
same,T/C,"dose: 32.0 mg/kg/injection, schedule: Q01DX009 (ip), vehicle: Klucel (hydroxypropylcellulose) (HPC)",100 % of control
same,T/C,"dose: 64.0 mg/kg/injection, schedule: Q01DX009 (ip), vehicle: Klucel (hydroxypropylcellulose) (HPC)",88 % of control
Cc1cccc(-c2nc3cc(Cl)ccc3c(=O)o2)c1,T/C,[12],100 % of control
same,T/C,"dose: 25.0 mg/kg/injection, schedule: Q04DX003 (ip), vehicle: Klucel (hydroxypropylcellulose) (HPC)",103 % of control
same,T/C,"dose: 50.0 mg/kg/injection, schedule: Q01DX009 (ip), vehicle: Klucel (hydroxypropylcellulose) (HPC)",107 % of control
same,T/C,"dose: 50.0 mg/kg/injection, schedule: Q04DX003 (ip), vehicle: Klucel (hydroxypropylcellulose) (HPC)",103 % of control
same,T/C,[10],100 % of control
same,T/C,[4],106 % of control
Cn1ccc(=Nc2ccc(NC(=O)c3ccc(N=c4ccn(C)c5ccc([N+](=O)[O-])cc45)cc3[N+](=O)[O-])cc2)cc1,T/C,[2],96 % of control
same,T/C,[3],97 % of control
same,T/C,[7],97 % of control
same,T/C,[8],105 % of control
same,T/C,[9],97 % of control
same,T/C,"dose: 400.0 mg/kg/injection, schedule: Q01DX009 (ip), vehicle: saline with Tween-80",91 % of control
C[N+](C)(CCO)Cc1ccccc1,T/C,[7],95 % of control
same,T/C,[8],90 % of control
